From ChEMBL document CHEMBL1154370, “Palmyramide A, a cyclic depsipeptide from a Palmyra Atoll collection of the marine cyanobacterium Lyngbya majuscula” (J Nat Prod, 2010)

Legend:
NCI-H460 = test: Cytotoxicity against human H460 cells after 48 hrs by MTT assay; format: functional, cell-based; settings: NCI-H460, 48 h
[1] = Inhibition of voltage-gated sodium channel in mouse Neuro2a cells assessed as suppression of quabain and veratridine-induced sodium overload cytotoxicity after 24 hrs by MTT assay; format: cell-based; settings: N2a

Compound: CCC[C@H]1OC(=O)[C@H](C(C)C)NC(=O)[C@@H](C(C)C)N(C)C(=O)[C@@H]2CCCN2C(=O)[C@H](Cc2ccccc2)OC(=O)[C@H](C)OC(=O)C1(C)C [PALMYRAMIDE A]
- IC50 (NCI-H460): 39.7 µM
- IC50 [1]: 17.2 µM
